Source: PubChem BioAssay (NCI)
Values joined by “and” are separate entries in the source; they are usually repeats but may differ in a detail not shown here. Equal values may be shown once.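 Exposure lasted 48 hours, with cells grown in 96-well plates and compounds tested at five concentrations. Here, GI50 denotes the concentration required for 50% inhibition of growth. TGI: concentration producing complete growth inhibition.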

Key:
Test in all cases: NCI anticancer screen, dose series, 48 h
MALME-3M melanoma = test system: MALME-3M melanoma
SN12C renal = test system: SN12C renal
OVCAR-8 ovarian = test system: OVCAR-8 ovarian
UO-31 renal = test system: UO-31 renal
SF-295 CNS = test system: SF-295 CNS
NCI-H460 lung = test system: NCI-H460 lung
RXF 393 renal = test system: RXF 393 renal
COLO 205 colon = test system: COLO 205 colon
M14 melanoma = test system: M14 melanoma
SK-MEL-2 melanoma = test system: SK-MEL-2 melanoma

Row | SMILES | TGI (MALME-3M melanoma) [µM] | TGI (SN12C renal) [µM] | TGI (OVCAR-8 ovarian) [µM] | TGI (UO-31 renal) [µM] | TGI (SF-295 CNS) [µM] | TGI (NCI-H460 lung) [µM] | TGI (RXF 393 renal) | TGI (COLO 205 colon) [µM] | TGI (M14 melanoma) [µM] | TGI (SK-MEL-2 melanoma) [µM] | GI50 (SK-MEL-2 melanoma) [µM] | GI50 (SN12C renal) [µM] | GI50 (OVCAR-8 ovarian) [µM] | GI50 (SF-295 CNS) [µM] | GI50 (NCI-H460 lung) [µM] | GI50 (RXF 393 renal) [µM] | GI50 (COLO 205 colon) [µM] | GI50 (M14 melanoma) [µM] | GI50 (MALME-3M melanoma) [µM] | GI50 (UO-31 renal) [µM]
1 | O=S(=O)(O)CS(=O)(=O)OCCCl | > 100 | > 100 | > 100 | > 100 | > 100 | > 100 | > 100 µM | > 100 | > 100 |  |  |  |  |  |  |  |  |  |  | 
2 | CCOC(=O)Cc1c(Cc2[nH]c(C(=O)OCc3ccccc3)c(CC(=O)OCC)c2CC(=O)OCC)[nH]c(C(=O)OCc2ccccc2)c1CC(=O)OCC | > 100 | > 100 | > 100 | > 100 | > 100 |  |  | > 100 | > 100 |  |  |  |  |  |  |  |  |  |  | 
3 | O=[N+]([O-])c1ccc(-c2ccc(/C=N/n3c(-c4ccc(Cl)cc4)n[nH]c3=S)o2)cc1 | 43.1 | > 100 | > 100 | > 100 | > 64 | > 54.7 |  | > 75.5 | 32.3 | > 100 |  |  |  |  |  |  |  |  |  | 
4 | O=c1c(Cl)nnc2sc3ccccc3n12 |  | > 100 | > 100 |  | > 100 | > 100 | 81.9 µM | > 100 | 91.9 | > 100 | > 100 | 24.6 | 40.8 | 45.6 | 37.7 | 27.8 | 47 | 22.2 |  | 
5 | O=C1C2=C(c3ccccc31)C(c1ccc(Cl)cc1)N1C(=O)CCSC1=N2 (centres undefined) | > 100 | > 100 |  | > 100 | > 100 |  |  | > 100 | > 100 | > 100 |  |  |  |  |  |  |  |  |  | 
6 | O=C1C2=C(c3ccccc31)C(c1cccc(Cl)c1)NC(=S)N2 (centres undefined) | > 100 | > 100 | > 100 | > 100 | > 100 | > 100 |  | > 100 | > 100 | > 100 |  |  |  |  |  |  |  |  |  | 
7 | O=C1CC(=O)N(C2CCCCC2)C(=O)N1c1ccccc1S(=O)(=O)Oc1ccccc1 |  | > 100 | > 100 | 33 | > 100 | > 100 | > 100 µM | > 100 | > 100 | > 100 |  |  |  |  |  |  |  |  |  | 
8 | Cc1cc(Br)cc(C)c1NC(=O)C(=O)CC(=O)c1sc(-n2nc(-c3ccccc3)cc2-c2ccccc2)nc1C | > 100 | > 100 | > 100 | > 100 | > 100 | > 100 | > 100 µM | > 100 | > 100 |  |  |  |  |  |  |  |  |  |  | 
9 | C1CCC([PH+](C2CCCCC2)C2CCCCC2[PH+](C2CCCCC2)C2CCCCC2)CC1.[Au].[CH-]1CCCCC1C1CCCC[N-]1 (centres undefined) | 0.844 |  | > 100 | 2.69 | 0.901 |  | 1.18 µM |  | 2.27 | 1.52 | 0.351 |  | 0.278 | 0.256 |  | 0.278 |  | 0.425 | 0.208 | 1.36
10 | CC1(C)N=C(N)N=C(N)N1c1cccc(/C=C/C=C/c2cccc([N+](=O)[O-])c2)c1 |  | 20.1 | 30 | > 100 | 28.3 | 15.3 | > 100 µM | 19.8 | 50.1 | 28.5 | 13.4 | 5.3 | 13.8 | 10.3 | 2.85 | 17.4 | 4.4 | 13.6 |  | 55.2
11 | CC(C)=CC(=O)CC(=O)C(=O)Nc1ccc(C)c(C)c1 | > 100 | > 100 |  | > 100 | > 100 |  |  |  | > 100 | > 100 |  |  |  |  |  |  |  |  |  | 
12 | ClC(=Nc1cccc2ccccc12)N(c1ccccc1)c1ccccc1 | > 100 | > 100 |  | > 100 | > 100 | 90.8 | > 100 µM |  | > 100 | > 100 |  |  |  |  |  |  |  |  |  | 
13 | Nc1ccn(C=C=CCO)c(=O)n1 | > 1000 | > 1000 | > 1000 | > 1000 | > 1000 |  |  | > 1000 | > 1000 | > 1000 | > 1000 | > 1000 |  | > 1000 |  |  | > 1000 | > 1000 | > 1000 | > 1000
14 | CC(=O)O[C@H]1C(=O)[C@@]2(C)C([C@H](OC(=O)c3ccccc3)[C@]3(O)C[C@H](OC(=O)[C@H](O)[C@H](NC(=O)c4ccccc4)c4ccc(Cl)cc4)C(C)=C1C3(C)C)C1(OC(C)=O)CO[C@@H]1C[C@@H]2O (some centres undefined) | 26.3 |  | 61.9 | 11 |  |  | 0.0644 µM and 0.0869 µM | 0.00842 | 0.027 | 0.0635 |  |  |  | 0.0167 |  | 0.0187 |  |  |  | 1.97
15 | COc1ccc(-c2oc3cc(O)c(OC)c(O)c3c(=O)c2OC2OC(CO)C(O)C(O)C2O)cc1 (centres undefined) |  | > 100 | > 100 | > 100 | > 100 | > 100 |  | > 100 | > 100 | > 100 |  |  |  |  |  |  |  |  |  | 
16 | Cc1ccc(-c2c(C#N)c(N)nc(N3CCOCC3)c2C#N)o1 | > 100 | > 100 | > 100 | 84 |  | > 100 | > 100 µM |  | > 100 | > 100 | 78.8 | 41.6 | 72.6 |  | 43.3 | 40.7 |  | 87.9 | 43.4 | 21.2
17 | CC(=O)[CH-]C(=O)c1ccccc1.CC(=O)[CH-]C(=O)c1ccccc1.CCN(CC)CC[O-].CCN(CC)CC[O-].Cl.[Ti+4] | 60.8 | > 100 | > 100 | 74.8 | 86.7 | > 100 |  |  | 45.9 | 93.9 | 26.9 | 39.5 | 38.8 | 37.9 | 29.8 |  |  | 22.5 | 22.8 | 21.1
18 | CCCCN(CCCC)C(=O)C(=O)CC(=O)c1ccc(Br)cc1 | > 100 | > 100 | > 100 | > 100 | > 100 | > 100 |  | > 100 | > 100 | > 100 |  |  |  |  |  |  |  |  |  | 
19 | COc1cc2c3c(n(C)c(=O)c2cc1OC)-c1cc2c(cc1/C3=C\CCCCN)OCO2 |  | 24.4 | 14.2 | 13.5 | 15.2 | > 100 | 57.1 µM | > 100 | 19.6 | 24.1 | 5.71 | 9.39 | 3.77 | 3.56 | 5.02 | 36 | 27.5 | 5.55 |  | 3.28
20 | Cc1ccc2c(c1)NC(c1ccc(C(=O)O)cc1)c1cccn1-2 (centres undefined) |  | > 100 |  |  | > 100 | > 100 | 50.2 µM | > 100 | > 100 | > 100 |  |  |  |  |  |  |  |  |  | 
21 | CCOC(=O)c1cccc(=O)c(C(=O)OCC)c1 | > 100 |  | > 100 | > 100 |  | > 100 | > 100 µM |  | > 100 | > 100 |  |  |  |  |  |  |  |  |  | 
22 | CCCCCCCCCCCCc1ccc(C(=O)/C=C/C(=O)O)cc1 | 3.6 | 4.14 | 12.9 | 3.01 | 25.5 | 27.1 | 3.34 µM | 3.84 | 4.17 |  |  | 1.83 | 3.44 | 12.5 | 10.8 | 1.76 | 1.83 | 1.79 | 1.82 | 1.63
23 | CC(Cc1ccc(Cl)cc1Cl)NO (centres undefined) | > 100 | > 100 | > 100 | > 100 | > 100 |  | > 100 µM | > 100 | > 100 | > 100 |  |  |  |  |  |  |  |  |  | 
24 | COc1ccc(N(C)c2nc(C)nc3ccccc23)cc1 | 39.5 | > 100 | > 63.1 | 60.4 |  |  | > 100 µM | < 0.01 | 14.9 |  |  | < 0.01 | < 0.01 | < 0.01 | < 0.01 | < 0.01 | < 0.01 | < 0.01 |  | 0.0103
25 | S=c1[nH]nc(COc2ccc(Cl)cc2)o1 | > 100 | > 100 | > 100 | > 100 | > 100 | > 100 |  | > 100 | > 100 |  |  |  |  |  |  |  |  |  |  | 
26 | COc1cccc(NC(=O)c2sc3nc4c(cc3c2N)CCCC4)c1 |  | > 100 | > 100 | > 100 | 14 | > 100 | 3.34 µM | > 100 |  | 18.6 | 0.69 | 3.98 | 2.58 | 0.481 | 0.474 | 0.365 | 3.83 |  |  | 0.859
27 | Cn1nc(-c2ccccc2NC(=O)C(F)(F)F)c(=O)n(C)c1=S | > 100 | > 100 | 67.7 | 74.4 | > 100 | 64.1 | > 100 µM |  | 45 | 60.7 |  |  |  |  |  |  |  |  |  | 
28 | O=S(=O)(c1ccc(NC(=S)N/N=C/c2ccccc2O)cc1)N1CCCCC1 | 1.43 | 3.92 | 14.9 | > 41.9 | 3.45 |  | > 100 µM | 36.5 | 2.78 | > 100 |  |  |  |  |  |  |  |  |  | 
29 | N#Cc1ccccc1NC(=O)C(=O)C(C(=O)c1ccccc1-c1ccccc1)C1OC(=O)c2ccccc21 (centres undefined) | 26.8 |  | > 100 |  | 58.3 | 40.4 | 25.3 µM | 43.2 | 30.6 | 32.1 |  |  |  |  |  |  |  |  |  | 
